Read-outs that look alike come from different tables or passages of the source.
How the values were obtained:
Assay type in all cases: in vivo
[1] = Monocrotaline-induced pulmonary arterial hypertension in the rat; settings: male, Sprague Dawley, in vivo, po, rat, 2 hours post-dosing at day 21, read-out: mean plasma concentration
Method: (§1) Compound (−)-17 was tested in monocrotaline-induced pulmonary arterial hypertension in the rat (see e.g., Stenmark et al, 2009, Am J Physiol Lung Cell Mol Physiol 297, L1013-L1032). Measurements included: mean arterial blood pressure and right ventricular pressure in vivo, ratio of right ventricular weight to left ventricular weight plus septum as an index of right ventricular hypertrophy, pulmonary artery acceleration time, and histological assessement of muscularization of pulmonary arteries.
(§2) Monocrotaline was dissolved in 1 N HCl and then into distilled water, and pH was adjusted to 7.4 using NaOH. A single dose of 60 mg/kg monocrotaline was administered subcutaneously on day 0 to three groups of male Sprague Dawley rats. The test article Compound (−)-17 was dissolved in 20% hydroxypropyl-beta-cyclodextrin with NaOH, HCl and mannitol in pyrogen-free water and administered orally by gavage (10 ml/kg) once daily from day 1 for 21 days at 10 mg/kg and 50 mg/kg. […] Corresponding volumes of 20% hydroxypropyl-beta-cyclodextrin vehicle were administered orally according to the same protocol in a third group of animals.

[2] = test system: monocrotaline-induced pulmonary arterial hypertension; test: as above; settings: for MAP / PAAT / RV/(LV + S) / RVP: Day 21, mean ± SD
Method: as §1, §2

[3] = Pharmacokinetic evaluation in the mouse; settings: male CD1 mouse
Method: For intravenous (i.v.) administration, Compound (−)-17 was dissolved in saline containing 20% (w/v) hydroxy-propyl-beta-cyclodextrin (HPbCD) at a concentration of 0.25 mg/mL and administered (10 mL/kg) to male CD1 mice (n=3) as a bolus via a tail vein at a dose level of 2.5 mg/kg. For oral (p.o.) administration, Compound (−)-17 was dissolved in water containing 20% (w/v) HPbCD at a concentration of 0.5 mg/mL and administered (20 mL/kg) to male CD1 mice (n=3) via gavage at a dose level of 10 mg/kg. Blood samples were collected via a saphenous vein at serial time points up to 24 h after dosing. Plasma was obtained by centrifugation and stored at −20° C. prior to analysis. Analysis was performed using liquid chromatography (LC) with tandem mass spectrometric detection (MS/MS) in positive ion mode. Compound (−)-17 was eluted from a reversed phase column with a gradient of acetonitrile and water containing 0.1% (v/v) formic acid. At the time of analysis plasma samples (20 uL) were thawed and […] with 200 uL of acetonitrile and centrifuged. Aliquots of the supernatant were injected onto a reversed phase UPLC column and analysed via electrospray Mass Spectrometry. Calibration standards and quality controls, analysed before and after the study samples, were prepared in mouse plasma at the same time as […]. The accuracy (intra branch accuracy from independent QC samples) was between 85% and 115% of the nominal value over the entire concentration range. Non-compartmental pharmacokinetic analysis of the plasma concentration-time curves was performed using WinNonLin to provide estimates of the plasma clearance (CLp), volume of distribution at steady-state (Vss), terminal phase elimination half-life ([…]) and oral bioavailability (F), the results are summarised in Table 8.

[4] = Pharmacokinetic evaluation in the rat; settings: male Sprague Dawley rat
Method: For intravenous (i.v.) administration, Compound (−)-17 was dissolved in saline containing 20% (w/v) hydroxy-propyl-beta-cyclodextrin (HPbCD) at a concentration of 1 mg/mL and administered (2.5 mL/kg) to male Sprague Dawley rats (n=1) as a bolus via a saphenous vein at a dose level of 2.5 mg/kg. For oral (p.o.) administration, Compound (−)-17 was dissolved in water containing 20% (w/v) HPbCD at a concentration of 1 mg/mL and administered (10 mL/kg) to male Sprague Dawley rats (n=3) via gavage at a dose level of 10 mg/kg. Blood samples were collected via a tail vein at serial time points up to 24 h after dosing. Plasma was obtained by centrifugation and stored at −20° C. prior to analysis. Analysis was performed using liquid chromatography (LC) with tandem mass spectrometric detection (MS/MS) in positive ion mode. Compound (−)-17 was eluted from a reversed phase column with a gradient of acetonitrile and water containing 0.1% (v/v) formic acid. At the time of analysis plasma samples (50 uL) were thawed and […] with at least three volumes of acetonitrile and centrifuged. Aliquots of the supernatant were injected onto a reversed phase UPLC column and analysed via electrospray Mass Spectrometry. Calibration standards and quality controls, analysed before and after the samples, were prepared in rat plasma at the same time as the study samples. The accuracy (intra branch accuracy from independent QC samples) was between 85% and 115% of the nominal value over the entire concentration range. Non-compartmental pharmacokinetic analysis of the plasma concentration-time curves was performed using WinNonLin to provide estimates of the plasma clearance (CLp), volume of distribution at steady-state (Vss), terminal phase elimination half-life (t½) and oral bioavailability (F), the results are summarised in Table 8.

[5] = 10 mg/kg p.o. once daily 21 days
[6] = 50 mg/kg p.o. once daily 21 days
[7] = rat, 10 mg and 50 mg p.o. once daily, three weeks
[8] = p.o. 10 mg/kg vs i.v. 2.5 mg/kg
[9] = plasma, intravenous, 2.5 mg/kg, read-out: t½ (converted)

COc1cc(N)c(Cl)cc1C(=O)NC1CCN(CCCOc2ccc(F)cc2)CC1(F)F (single isomer, unassigned) [Compound (−)-17, 4-amino-5-chloro-N-{3,3-difluoro-1-[3-(4-fluorophenoxy)-propyl]-piperidin-4-yl}-2-methoxybenzamide]
concentration at 2 h ([1]; 10 mg/kg, 10 mg p.o. once daily): ~80 ng/mL | concentration at 2 h ([1]; 50 mg/kg, 50 mg p.o. once daily): 1000 ng/mL | MAP [2, 5]: 93.7 ± 14.11 mmHg | PAAT [2, 5]: 15.91 ± 2.76 ms | RV/(LV + S) [2, 5]: 0.46 ± 0.08 | RVP [2, 5]: 43.18 ± 7.38 mmHg | MAP [2, 6]: 97.58 ± 9.74 mmHg | PAAT [2, 6]: 15.42 ± 2.62 ms | RV/(LV + S) [2, 6]: 0.41 ± 0.08 | RVP [2, 6]: 42.85 ± 11.55 mmHg | toxicity of three-week treatment ([2]; rat, 10 mg and 50 mg p.o. once daily): non-toxic | effect on mean arterial blood pressure (MAP) [2, 7]: no effect | effect on pulmonary artery acceleration time (PAAT) [2, 7]: increased | effect on right ventricular hypertrophy RV/(LV+S) [2, 7]: reduced | effect on right ventricular pressure (RVP) [2, 7]: reduced | monocrotaline-induced thickening of wall of small pulmonary arteries ([2]; rat, 10 mg p.o. three weeks (P<0.005)): reduced | monocrotaline-induced thickening of wall of small pulmonary arteries ([2]; rat, 50 mg/kg p.o. three weeks (P=0.0539)): reduced | F [3, 8]: 52% | half-life [3, 9]: 84 ± 12 min | clearance ([3]; plasma, iv, i.v. 2.5 mg/kg): 20 ± 6 mL/min/kg | Vd ([3]; plasma, iv, i.v. 2.5 mg/kg, read-out: Vss): 1.9 ± 0.6 L/kg | AUC(0-t) ([3]; plasma, po, p.o. 10 mg/kg): 4440 ± 1090 ng·h/mL | Cmax ([3]; plasma, po, p.o. 10 mg/kg): 1580 ± 165 ng/mL | Tmax ([3]; plasma, po, p.o. 10 mg/kg): 30 min | F [4, 8]: 19% | half-life [4, 9]: 66 min | clearance ([4]; plasma, iv, i.v. 2.5 mg/kg (n=1)): 46 mL/min/kg | Vd ([4]; plasma, iv, i.v. 2.5 mg/kg (n=1), read-out: Vss): 3.1 L/kg | AUC(0-t) ([4]; plasma, po, p.o. 10 mg/kg): 686 ± 254 ng·h/mL | Cmax ([4]; plasma, po, p.o. 10 mg/kg): 119 ± 37 ng/mL | Tmax ([4]; plasma, po, p.o. 10 mg/kg): 30 min

Reference: US9139523B2, “5-HT2B receptor antagonists” (Janssen Pharmaceutica, NV, priority 2010, dated 2015)
